The text below walks through data of patent US9328117B2, “Bromodomain inhibitors and uses thereof” (Constellation Pharmaceuticals, Inc., priority 2011, dated 2016).

Molecules are shown by their SMILES. A value given as a limit tells only on which side of the number the result lay.

In experiment [1] the target is T1, BRD4(BD1) (Homo sapiens, UniProt O60885).
T1 construct: His; made in house
The experiment in a line: BRD4 AlphaLisa binding assay. To be noted: BRD4(BD1) 30 nM, biotinylated H4-tetraacetyl peptide 200 nM. The method, then: A. IC50 Measurements for Inhibitors Using BRD4 AlphaLisa Binding Assay
His/Flag epitope tagged BRD4 BD142-168 was cloned, expressed and purified to homogeneity. BRD4 binding and inhibition was assessed by monitoring the engagement of biotinylated H4-tetraacetyl peptide (Millipore #12-379) with the target using the AlphaLisa technology (Perkin-Elmer). Specifically, in a 384 well ProxiPlate BRD4(BD1) (30 nM final) was combined with peptide (200 nM final) in 40 mM HEPES (pH 7.0), 40 mM NaCl, 1 mM DTT, 0.01% (w/v) BSA, and 0.008% (w/v) Brij-35 either in the presence of DMSO (final 1.2% DMSO) or compound dilution series in DMSO. After 20 minute incubation at room temperature Alpha streptavidin donor beads and AlphaLisa anti-Flag acceptor beads were added to a final concentration of 10 ug/mL each. After three hours equilibration plates were read on an Envision instrument and IC50s calculated using a four parameter non-linear curve fit.
In general terms: In Alpha technology, singlet oxygen from a donor bead excites a nearby acceptor bead.

For experiment [2], the system named is IL-6 secretion in LPS-treated THP-1 cells. The experiment is described as follows: Cell-based IL-6 quantification assay (ELISA, Mesoscale). To be noted: Homo sapiens, LPS 4 μg/mL, 16 h, normalised to CellTiter-Glo. The method, then: C. Cell-Based IL-6 Quantification Assay (ELISA, Mesoscale Assay):
100,000 THP-1 cells were seeded in RPMI1640-10% FBS in 96-well plates. LPS (E. Coli Invitrogen) in RPMI-10% FBS at a final concentration of 4 μg/mL was added to the wells and the cells are then incubated in the presence of various concentrations of compounds for 16 h. Plates are spun ([…], 5 min), an aliquot of 25 uL supernatant is transferred in to an ELISA plate (Mesoscale technology, MSD) and the detection of IL-6 is performed using manufacturer's instructions. The amount of cells in each well is assessed using CellTiter-Glo® (Promega). The ratio of ELISA value/CellTiter-Glo value is used to calculate the percent of inhibition of IL-6 secretion.

Experiment [3] concerns MYC mRNA in MV4:11 (AML) cells. The experiment is described as follows: cMyc RNA quantification assay (QuantiGene), MV4:11. The class given is cell-based. The settings on record: Homo sapiens; MV4-11 cells, 4 h. The method, then:
(§1) B. cMyc RNA quantification assay (QuantiGene® Assay)
(§2) MV4:11 (AML) or Raji (Burkitt lymphoma) cells were seeded in a 96-well plate and incubated in the presence of various concentrations of compounds for 4 h. Relative mRNA levels were quantitated by using QuantiGene 2.0 assay (Affymetrix) according to the manufacturer's recommendation. Signals were detected by using an Envision plate reader (Perkin-Elmer). Biological duplicates were averaged and normalized to vehicle (DMSO) control to calculate percent MYC mRNA levels.

For experiment [4], the system named is MYC mRNA in Raji (Burkitt lymphoma) cells. The experiment is described as follows: cMyc RNA quantification assay (QuantiGene), Raji. The class given is cell-based. To be noted: Homo sapiens, 4 h. The method, then: as §1, §2

Usually IC50 stands for the midpoint of a concentration-inhibition curve. Higher therefore signals weaker potency in that assay. With `Cc1nnc2ccc(NC(C)c3ccccc3)nn12` (racemic) [Compound 1, rac-3-methyl-N-(1-phenylethyl)-[1,2,4]triazolo[4,3-b]pyridazin-6-amine], the IC50 in experiment [1], in experiment [2] and in experiment [3] was over 1000 nM throughout.
In the case of `Cc1nnc2ccc(N(C)C(C)c3ccccc3)nn12` (stereo not shown) [Compound 2, N,3-dimethyl-N-(1-phenylethyl)-[1,2,4]triazolo[4,3-b]pyridazin-6-amine], the IC50 in experiment [1] was 500 to 1000 nM; in experiment [2], over 1000 nM.
As for `Cc1nnc2ccc(N(C)[C@@H](C)c3ccccc3)nn12` [Compound 3, (S)-N,3-dimethyl-N-(1-phenylethyl)-[1,2,4]triazolo[4,3-b]pyridazin-6-amine], the IC50 is under 500 nM in experiment [1] and over 1000 nM in experiment [2].
`Cc1nnc2ccc(N(C)[C@H](C)c3ccccc3)nn12` [Compound 4, (R)-N,3-dimethyl-N-(1-phenylethyl)-[1,2,4]triazolo[4,3-b]pyridazin-6-amine]: the IC50 in experiment [1] is over 1000 nM.
`CCNC(=O)Nc1cc(N(C)[C@@H](C)c2ccccc2)nn2c(C)nnc12` [Compound 5, (S)-1-ethyl-3-(3-methyl-6-(methyl(1-phenylethyl)amino)-[1,2,4]triazolo[4,3-b]pyridazin-8-yl)urea]: the IC50 in experiment [1], in experiment [2] and in experiment [4] was under 500 nM in each case.
With `Cc1nnc2c(N)cc(N(C)[C@@H](C)c3ccccc3)nn12` [Compound 6, (S)-N^6,3-dimethyl-N^6-(1-phenylethyl)-[1,2,4]triazolo[4,3-b]pyridazine-6,8-diamine], the IC50 in experiment [1] and in experiment [2] was under 500 nM throughout.
With `Cc1nnc2c(C(N)=O)cc(N(C)[C@@H](C)c3ccccc3)nn12` [Compound 7, (S)-3-methyl-6-(methyl(1-phenylethyl)amino)-[1,2,4]triazolo[4,3-b]pyridazine-8-carboxamide], the IC50 in experiment [1] and in experiment [2] was over 1000 nM each time.
With `Cc1nnc2c(NC(=O)N(C)C)cc(N(C)[C@@H](C)c3ccccc3)nn12` [Compound 8, (S)-1,1-dimethyl-3-(3-methyl-6-(methyl(1-phenylethyl)amino)-[1,2,4]triazolo[4,3-b]pyridazin-8-yl)urea], the IC50 is under 500 nM in experiment [1], 500 to 1000 nM in experiment [2] and over 1000 nM in experiment [4].
Consider `C[C@@H](c1ccccc1)N(C)c1ccc2nnc(C#N)n2n1` [Compound 9, (S)-6-(methyl(1-phenylethyl)amino)-[1,2,4]triazolo[4,3-b]pyridazine-3-carbonitrile], for which the IC50 in experiment [1], in experiment [2] and in experiment [3] was over 1000 nM throughout.
In experiment [1], `Cc1nnc2ccc(N3CCCC3c3ccccc3)nn12` (stereo not shown) [Compound 10, 3-methyl-6-(2-phenylpyrrolidin-1-yl)-[1,2,4]-triazolo[4,3-b]pyridazine] showed an IC50 of over 1000 nM.
As to `CCOC(=O)Nc1cc(N(C)[C@@H](C)c2ccccc2)nn2c(C)nnc12` [Compound 11], the IC50 in experiment [1], in experiment [2] and in experiment [4] was under 500 nM in each case.
As to `CCNC(=O)Nc1cc(N(C)[C@@H](C)c2ccc(F)cc2)nn2c(C)nnc12` [Compound 12], the IC50 in experiment [1], in experiment [2] and in experiment [3] was under 500 nM each time.
Take `CCNC(=O)Nc1cc(N(C)[C@@H](C)c2ccc(Cl)cc2)nn2c(C)nnc12` [Compound 13]: the concentration for half-maximal inhibition (IC50) in experiment [1], in experiment [2] and in experiment [3] was under 500 nM in each case.
Take `CCNC(=O)Nc1cc(N(C)[C@@H](C)c2ccccc2)nn2c(C(F)(F)F)nnc12` [Compound 14]: the IC50 in experiment [1], in experiment [2] and in experiment [3] was under 500 nM throughout.
